# Data reported in patent publication US20210205415A1 (Longevity Biotech, Inc., priority 2010, published 2021).
# No end group written: not given here.
# How the values were obtained:
# VIPR2 = target: T1, VIPR2 (Homo sapiens, UniProt P41587); assay: cAMP Hunter cell line agonist mode assay (DiscoveRx HitHunter cAMP XS+); type: cell-based; conditions: for Mean RLU: readout cAMP, cell line VIPR2
# T1 sequence (P41587 24-438): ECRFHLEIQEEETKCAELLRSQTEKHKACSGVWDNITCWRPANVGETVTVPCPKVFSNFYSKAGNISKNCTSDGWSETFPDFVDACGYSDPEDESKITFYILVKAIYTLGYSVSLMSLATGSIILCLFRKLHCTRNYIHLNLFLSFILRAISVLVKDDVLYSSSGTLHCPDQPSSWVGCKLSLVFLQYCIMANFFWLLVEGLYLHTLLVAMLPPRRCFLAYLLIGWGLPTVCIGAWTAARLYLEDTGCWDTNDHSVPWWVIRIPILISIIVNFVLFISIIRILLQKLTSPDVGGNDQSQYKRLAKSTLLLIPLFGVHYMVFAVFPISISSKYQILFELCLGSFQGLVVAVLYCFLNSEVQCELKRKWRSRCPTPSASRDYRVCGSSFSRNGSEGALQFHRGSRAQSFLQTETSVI
# Protocol: (§1) Once it was established that the cells were healthy and growing normally, cells were passaged from flasks using cell dissociation reagent buffer and seeded into white walled clear bottom 384-well microplates for compound profiling. For profiling, cells were seeded at a density of 10,000 cells per well in a total volume of 20 μL and were allowed to adhere and recover overnight prior to compound addition. cAMP modulation was determined using the DiscoveRx HitHunter cAMP XS+ assay.
# (§2) For profiling compound in agonist mode, the cells were incubated in the presence of compound at 37° C. for 30 minutes. […] After appropriate compound incubation, assay signal was generated through incubation with DiscoverX lysis cocktail according to the manufacturers standard protocol. Dose curves were plotted using GraphPad Prism or Activity Base. Percentage activity is calculated using the following formula:
# (§3) % Activity=100% ×(mean RLU of test sample−mean RLU of vehicle control)/(mean RLU of MAX control−mean RLU of vehicle control).
# VIPR1 = target: T2, VIPR1 (Homo sapiens, UniProt P32241); assay: as above; type: cell-based; conditions: for Mean RLU: readout cAMP, cell line VIPR1
# T2 sequence (P32241 31-457): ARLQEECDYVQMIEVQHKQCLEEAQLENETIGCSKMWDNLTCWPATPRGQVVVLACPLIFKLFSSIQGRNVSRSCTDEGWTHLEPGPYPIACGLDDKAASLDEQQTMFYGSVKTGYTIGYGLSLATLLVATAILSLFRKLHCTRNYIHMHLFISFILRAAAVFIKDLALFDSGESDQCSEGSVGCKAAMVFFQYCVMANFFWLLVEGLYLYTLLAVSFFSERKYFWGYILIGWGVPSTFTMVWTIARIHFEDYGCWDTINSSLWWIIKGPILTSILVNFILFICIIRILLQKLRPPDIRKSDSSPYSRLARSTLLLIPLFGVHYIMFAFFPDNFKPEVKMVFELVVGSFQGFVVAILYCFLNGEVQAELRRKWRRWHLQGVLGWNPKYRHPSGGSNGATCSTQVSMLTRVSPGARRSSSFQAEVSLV
# Protocol: as §1, §2, §3
# rat CRF1 receptors = target: T3, rat CRF1 receptors (Rattus norvegicus, UniProt P35353); conditions: read-out: Kd for binding to rat CRF1 receptors; cited from earlier work
# T3 sequence (P35353 24-415): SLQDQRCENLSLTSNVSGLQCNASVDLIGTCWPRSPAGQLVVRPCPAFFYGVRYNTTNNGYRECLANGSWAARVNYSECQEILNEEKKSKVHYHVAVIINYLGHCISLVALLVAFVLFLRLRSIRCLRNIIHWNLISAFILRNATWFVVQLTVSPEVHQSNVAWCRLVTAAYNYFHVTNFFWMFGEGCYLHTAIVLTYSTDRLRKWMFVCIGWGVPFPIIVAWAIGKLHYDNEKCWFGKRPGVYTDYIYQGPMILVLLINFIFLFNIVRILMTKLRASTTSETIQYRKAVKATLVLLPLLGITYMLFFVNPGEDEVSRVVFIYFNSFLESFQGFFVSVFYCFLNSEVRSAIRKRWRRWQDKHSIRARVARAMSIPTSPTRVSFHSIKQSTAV
# HEK-mCRF2β cells = target: T4, HEK-mCRF2β cells (Mus musculus, UniProt Q60748); conditions: cited from earlier work
# T4 construct: expressed in transfected cells; host or cells: HEK cells (value quoted from the literature)
# T4 sequence (Q60748 1-431 isoform Q60748-2): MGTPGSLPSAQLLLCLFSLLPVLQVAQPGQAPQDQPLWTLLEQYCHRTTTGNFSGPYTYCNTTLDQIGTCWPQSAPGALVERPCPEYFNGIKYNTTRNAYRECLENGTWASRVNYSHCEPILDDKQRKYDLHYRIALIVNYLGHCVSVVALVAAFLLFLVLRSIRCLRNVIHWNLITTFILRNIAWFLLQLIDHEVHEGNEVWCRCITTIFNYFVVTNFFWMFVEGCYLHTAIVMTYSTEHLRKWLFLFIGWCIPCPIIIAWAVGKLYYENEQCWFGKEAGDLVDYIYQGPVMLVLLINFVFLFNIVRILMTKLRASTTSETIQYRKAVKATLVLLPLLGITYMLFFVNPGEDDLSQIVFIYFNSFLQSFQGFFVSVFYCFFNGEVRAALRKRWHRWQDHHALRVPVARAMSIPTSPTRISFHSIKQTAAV
# mouse CRF2β = mouse CRF2β (Mus musculus, UniProt Q60748); conditions: read-out: Kd for binding to mouse CRF2β; cited from earlier work
# Sequence of mouse CRF2β (Q60748 1-431 isoform Q60748-2): as above
# CRF2α = target: T5, CRF2α (Homo sapiens, UniProt Q13324); conditions: cited from earlier work
# T5 sequence (Q13324 1-411): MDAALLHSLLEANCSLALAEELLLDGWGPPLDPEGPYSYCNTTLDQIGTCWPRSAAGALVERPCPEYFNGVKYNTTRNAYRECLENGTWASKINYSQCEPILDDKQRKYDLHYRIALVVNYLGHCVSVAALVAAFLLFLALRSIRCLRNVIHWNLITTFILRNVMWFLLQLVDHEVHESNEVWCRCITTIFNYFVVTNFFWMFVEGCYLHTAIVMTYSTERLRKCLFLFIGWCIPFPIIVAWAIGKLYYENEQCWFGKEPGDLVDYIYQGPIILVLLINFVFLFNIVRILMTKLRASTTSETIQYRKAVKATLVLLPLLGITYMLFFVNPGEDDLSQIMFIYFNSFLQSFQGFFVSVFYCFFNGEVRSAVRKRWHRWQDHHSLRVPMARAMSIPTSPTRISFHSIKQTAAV
# [1] = system: calcitonin-gene related peptide (CGRP) and adrenomedullin receptors; conditions: cited from earlier work
# calcitonin (CT) receptor = conditions: cited from earlier work
# neurotensin receptors = conditions: rat brain receptors; read-out: IC50 for inhibition of {Trp11}-NT binding; cited from earlier work
# Glucagon receptor = target: T6, Glucagon receptor (Rattus norvegicus, UniProt P30082); conditions: rat liver membranes; cited from earlier work
# T6 construct: from tissue; host or cells: rat liver membranes (value quoted from the literature)
# T6 sequence (P30082 27-485): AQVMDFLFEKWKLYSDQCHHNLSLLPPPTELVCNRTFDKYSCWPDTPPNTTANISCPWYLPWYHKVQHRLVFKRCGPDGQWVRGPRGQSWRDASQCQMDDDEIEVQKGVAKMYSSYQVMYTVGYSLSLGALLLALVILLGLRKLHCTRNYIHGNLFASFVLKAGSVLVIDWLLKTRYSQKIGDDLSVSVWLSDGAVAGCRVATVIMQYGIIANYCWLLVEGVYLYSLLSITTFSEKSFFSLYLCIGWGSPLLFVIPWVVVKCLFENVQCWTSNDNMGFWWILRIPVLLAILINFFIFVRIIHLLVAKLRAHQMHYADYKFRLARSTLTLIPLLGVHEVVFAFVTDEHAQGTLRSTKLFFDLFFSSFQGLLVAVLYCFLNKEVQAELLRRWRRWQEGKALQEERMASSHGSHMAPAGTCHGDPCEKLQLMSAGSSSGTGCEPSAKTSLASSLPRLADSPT
# [2] = humans; cited from earlier work
# VPAC2 receptors = target: T7, VPAC2 receptors (Homo sapiens, UniProt P41587); conditions: read-out: IC50 for VPAC2 receptor; cited from earlier work
# T7 sequence (P41587 24-438): T1 sequence (P41587 24-438)
# VPAC1 receptor = target: T8, VPAC1 receptor (Homo sapiens, UniProt P32241); conditions: cited from earlier work
# T8 sequence (P32241 31-457): T2 sequence (P32241 31-457)
compound,measurement,setting,value
"CC[C@H](C)[C@H](NC(=O)[C@H]1CCC[C@@H]1NC(=O)[C@H](CC(N)=O)NC(=O)[C@H](CC(C)C)NC(=O)[C@H](Cc1ccc(O)cc1)NC(=O)[C@H]1CNC[C@@H]1NC(=O)[C@H](CCCCN)NC(=O)[C@@H](NC(=O)[C@H]1CCC[C@@H]1NC(=O)[C@H](CC(C)C)NC(=O)[C@H](CCC(N)=O)NC(=O)[C@H](CCCCN)NC(=O)[C@H]1CNC[C@@H]1NC(=O)[C@H](CC(C)C)NC(=O)[C@H](CCCNC(=N)N)NC(=O)[C@H]1CCC[C@@H]1NC(=O)[C@H](Cc1ccc(O)cc1)NC(=O)[C@H](CC(N)=O)NC(=O)[C@H](CC(=O)O)NC(=O)[C@@H](NC(=O)[C@H](Cc1ccccc1)NC(=O)[C@@H](NC(=O)[C@H](C)NC(=O)[C@H](CC(=O)O)NC(=O)[C@H](CO)NC(=O)[C@@H](N)Cc1c[nH]cn1)C(C)C)[C@@H](C)O)C(C)C)C(=O)N[C@H](CC(=O)NC(CC(N)=O)CC(N)=O)CC(C)C [Compound 8, HSDAVFTDNYXRLZKQLXVKZYLNXILN]",interaction with VIPR2,VIPR2,does not interact substantially with VIPR2
same,activation of VIPR2,VIPR2; FIG. 3,not activate VIPR2
same,Mean RLU,VIPR2; [Compound] 1.00E−07 M,5920.0 RLU
same,Mean RLU,VIPR2; [Compound] 1.00E−08 M,9580.0 RLU
same,Mean RLU,VIPR2; [Compound] 1.00E−09 M,5960.0 RLU
same,Mean RLU,VIPR2; [Compound] 1.00E−10 M,7560.0 RLU
same,Mean RLU,VIPR2; [Compound] 1.00E−11 M,9250.0 RLU
same,Mean RLU,VIPR2; [Compound] 1.00E−12 M,8960.0 RLU
same,Mean RLU,VIPR2; [Compound] 5.00E−07 M,10200.0 RLU
same,Mean RLU,VIPR2; [Compound] 5.00E−08 M,9200.0 RLU
same,Mean RLU,VIPR2; [Compound] 5.00E−09 M,3560.0 RLU
same,Mean RLU,VIPR2; [Compound] 5.00E−10 M,9620.0 RLU
same,EC50 compared with wild-type VIP,VIPR1; FIG. 3 legend,higher than the EC50 of wild-type VIP protein
same,Emax,"VIPR1; FIG. 3 legend, read-out: activation of VIPR1 relative to maximum activation",~100%
same,Mean RLU,"VIPR1; [Compound] 1.00E−08 M, agonist mode",13750.0 RLU
same,Mean RLU,"VIPR1; [Compound] 1.00E−09 M, agonist mode",18600.0 RLU
same,Mean RLU,"VIPR1; [Compound] 1.00E−10 M, agonist mode",9060.0 RLU
same,Mean RLU,"VIPR1; [Compound] 1.00E−11 M, agonist mode",10500.0 RLU
same,Mean RLU,"VIPR1; [Compound] 1.00E−12 M, agonist mode",10340.0 RLU
same,Mean RLU,"VIPR1; [Compound] 5.00E−09 M, agonist mode",13250.0 RLU
same,Mean RLU,"VIPR1; [Compound] 5.00E−10 M, agonist mode",9520.0 RLU
same,activation of VIPR1,"VIPR1; agonist mode, FIG. 3",fully activate VIPR1
Antisauvagine-30,Kd,rat CRF1 receptors,1540 nM
same,"pA2, inhibition of sauvagine-stimulated cAMP accumulation",HEK-mCRF2β cells,accumulation in HEK-mCRF2β cells (pA2=849) Prevents stress-
same,Kd,mouse CRF2β,14 nM
Astressin,Ki,CRF2α,15 nM
"Calcitoninreceptor-stimulating peptide-1 (SCNTATCMTHRLVGLLSRSGSMVRSNLLPTKMGFKVFG-NH2; ends and bridges not checked; UniProt Q862B1 81-118, looked up)",activity at CGRP and adrenomedullin receptors,[1],no activity at calcitonin-gene related peptide (CGRP) and adrenomedullin
same,"ED50, stimulation of cAMP formation",calcitonin (CT) receptor; calcitonin (CT) receptor,02 nM
same,potency of cAMP formation relative to CT,calcitonin (CT) receptor; greater than CT,350 fold
"Neuromedin N (rat, mouse, porcine, canine) (KIPYIL; Neuromedin N; UniProt P20068 142-147, looked up)",IC50,neurotensin receptors,167 nM
des-His1-{Glu9}-Glucagon (1-29) amide,pA2 for inhibition of glucagon-induced adenylyl cyclase activation,Glucagon receptor,(Glucagon receptor antagonist (pA2=72 for inhibition of glucagon-induced
glucagon-like peptide-1 [GLP-1],plasma half-life,[2],2 min
"{Ala2,8,9,11,19,22,24,25,27,28}-VIP",IC50,VPAC2 receptors,> 30000 nM
same,IC50,VPAC1 receptor,115 to 132 nM
